Results taken from paper PMC11279404, “Discovery of 1H-benzo[d]imidazole-(halogenated)Benzylidenebenzohydrazide Hybrids as Potential Multi-Kinase Inhibitors” (Pharmaceuticals, 2024).

Columns and labels:
[1] = test system: HepG2 (hepatocellular carcinoma cell line); experiment: MTT in vitro cytotoxicity, HepG2; format: cell-based, human; details: for IC50: Homo sapiens, HepG2, MTT, mean ± SD of triplicate; for SI (Selectivity Index) HepG2: IC50 of WI-38 / IC50 of HepG2
[2] = MTT in vitro cytotoxicity, normal WI-38; format: cell-based; details: human, WI-38 normal lung fibroblast cells, normal cell line, mean ± SD of triplicate
[3] = test system: MCF-7 (mammary gland breast cancer cell line); experiment: MTT in vitro cytotoxicity, MCF-7; format: cell-based, human; details: for IC50: Homo sapiens, MCF7, MTT, mean ± SD of triplicate; for SI (Selectivity Index) MCF-7: IC50 of WI-38 / IC50 of MCF-7
[4] = test system: cancer cell lines (HCT-116, HepG2, MCF-7); experiment: MTT in vitro cytotoxicity, summary across the cancer cell line panel; format: cell-based; details: Homo sapiens; summary over HCT-116, HepG2, MCF-7; read-out: IC50 values across the tested cancer cell lines
Protocol: The cytotoxic activities of compounds 6a-l were assessed using a standard MTT method, which was performed across three different cancer cell line models, namely human colon cancer (HCT-116), hepatocellular carcinoma (HepG2), mammary gland cancer (MCF-7), and normal (WI-38) cell lines. […] […]. Substitution at the 4-position, as in the case of compounds 6d, 6g, and 6j, also seems beneficial, with fluoro (6j) showing the best results. […]. Overall, the cytotoxicity data provide valuable insights into the structure–activity relationships of the synthesized compounds and can guide further optimization efforts to develop potential anticancer agents with improved potency and selectivity.
. The SI values represent the ratio of the IC50 values for the normal WI-38 cell line compared with the respective cancer cell lines, with higher SI values indicating greater selectivity for the cancer cells over normal cells. […]. The cytotoxic potential of compounds 6a-l was evaluated against a panel of cancer cell lines, including HCT-116, HepG2, and MCF-7, as well as a normal cell line, WI-38, using the reported methodology. The cell lines utilized in this study were obtained from the American Type Culture Collection (ATCC) through the Holding Company for Biological Products and Vaccines (VACSERA) in Cairo, Egypt. These included: 1. A human colon cancer cell line (HCT-116); 2. Hepatocellular carcinoma (HepG2)—a liver cancer cell line; 3. Mammary gland breast cancer (MCF-7); and 4. A human lung fibroblast (WI-38)—a normal cell line.

[5] = test system: HCT-116 (human colon cancer cell line); experiment: MTT in vitro cytotoxicity, HCT-116; format: cell-based; details: for IC50: Homo sapiens, HCT-116, MTT, mean ± SD of triplicate; for SI (Selectivity Index) HCT-116: IC50 of WI-38 / IC50 of HCT-116
Her2 = Her2 (Homo sapiens, UniProt P04626); experiment: In vitro protein kinase inhibition, Her2
AURKC = target: T1, AURKC (Homo sapiens, UniProt Q9UQB9); experiment: In vitro protein kinase inhibition, AURKC
T1 sequence (Q9UQB9 1-309): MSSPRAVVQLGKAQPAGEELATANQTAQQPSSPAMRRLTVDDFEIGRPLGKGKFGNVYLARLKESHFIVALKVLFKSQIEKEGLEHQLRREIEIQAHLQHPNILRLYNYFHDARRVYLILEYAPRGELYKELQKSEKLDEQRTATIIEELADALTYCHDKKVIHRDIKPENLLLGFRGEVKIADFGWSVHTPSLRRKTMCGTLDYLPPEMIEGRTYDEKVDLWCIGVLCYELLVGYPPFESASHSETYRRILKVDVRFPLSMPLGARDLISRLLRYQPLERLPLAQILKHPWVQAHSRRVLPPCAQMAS

VEGFR2 = VEGFR2 (Homo sapiens, UniProt P35968); experiment: In vitro protein kinase inhibition, VEGFR2; format: biochemical; details: mean ± SD of triplicate
Excerpt: […]. […] […].

CDK2 = CDK2 (Homo sapiens, UniProt P24941); experiment: In vitro protein kinase inhibition, CDK2
EGFR = EGFR (Homo sapiens, UniProt P00533); experiment: In vitro protein kinase inhibition, EGFR
mTOR = mTOR (Homo sapiens, UniProt P42345); experiment: In vitro enzyme inhibition, mTOR
HDAC1 = HDAC1 (Homo sapiens, UniProt Q13547); experiment: In vitro enzyme inhibition, HDAC1; format: biochemical; details: mean ± SD of triplicate; read-out: In Vitro Protein Kinase Inhibition IC50 HDAC1
Chain of HDAC1 (Q13547 whole entry): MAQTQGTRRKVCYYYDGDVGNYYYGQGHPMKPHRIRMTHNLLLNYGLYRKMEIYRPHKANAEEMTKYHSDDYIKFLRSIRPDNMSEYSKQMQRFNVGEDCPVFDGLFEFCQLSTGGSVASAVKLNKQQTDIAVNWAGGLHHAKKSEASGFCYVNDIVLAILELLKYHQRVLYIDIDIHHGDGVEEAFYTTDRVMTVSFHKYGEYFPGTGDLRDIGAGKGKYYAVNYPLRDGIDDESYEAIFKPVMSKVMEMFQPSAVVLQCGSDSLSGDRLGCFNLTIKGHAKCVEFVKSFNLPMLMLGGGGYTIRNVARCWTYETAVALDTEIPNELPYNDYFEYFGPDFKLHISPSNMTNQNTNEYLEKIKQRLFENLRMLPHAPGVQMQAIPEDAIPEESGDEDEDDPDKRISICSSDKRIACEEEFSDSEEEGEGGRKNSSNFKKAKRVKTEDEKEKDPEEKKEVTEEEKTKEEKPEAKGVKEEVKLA

Chain of EGFR (P00533 25-1210): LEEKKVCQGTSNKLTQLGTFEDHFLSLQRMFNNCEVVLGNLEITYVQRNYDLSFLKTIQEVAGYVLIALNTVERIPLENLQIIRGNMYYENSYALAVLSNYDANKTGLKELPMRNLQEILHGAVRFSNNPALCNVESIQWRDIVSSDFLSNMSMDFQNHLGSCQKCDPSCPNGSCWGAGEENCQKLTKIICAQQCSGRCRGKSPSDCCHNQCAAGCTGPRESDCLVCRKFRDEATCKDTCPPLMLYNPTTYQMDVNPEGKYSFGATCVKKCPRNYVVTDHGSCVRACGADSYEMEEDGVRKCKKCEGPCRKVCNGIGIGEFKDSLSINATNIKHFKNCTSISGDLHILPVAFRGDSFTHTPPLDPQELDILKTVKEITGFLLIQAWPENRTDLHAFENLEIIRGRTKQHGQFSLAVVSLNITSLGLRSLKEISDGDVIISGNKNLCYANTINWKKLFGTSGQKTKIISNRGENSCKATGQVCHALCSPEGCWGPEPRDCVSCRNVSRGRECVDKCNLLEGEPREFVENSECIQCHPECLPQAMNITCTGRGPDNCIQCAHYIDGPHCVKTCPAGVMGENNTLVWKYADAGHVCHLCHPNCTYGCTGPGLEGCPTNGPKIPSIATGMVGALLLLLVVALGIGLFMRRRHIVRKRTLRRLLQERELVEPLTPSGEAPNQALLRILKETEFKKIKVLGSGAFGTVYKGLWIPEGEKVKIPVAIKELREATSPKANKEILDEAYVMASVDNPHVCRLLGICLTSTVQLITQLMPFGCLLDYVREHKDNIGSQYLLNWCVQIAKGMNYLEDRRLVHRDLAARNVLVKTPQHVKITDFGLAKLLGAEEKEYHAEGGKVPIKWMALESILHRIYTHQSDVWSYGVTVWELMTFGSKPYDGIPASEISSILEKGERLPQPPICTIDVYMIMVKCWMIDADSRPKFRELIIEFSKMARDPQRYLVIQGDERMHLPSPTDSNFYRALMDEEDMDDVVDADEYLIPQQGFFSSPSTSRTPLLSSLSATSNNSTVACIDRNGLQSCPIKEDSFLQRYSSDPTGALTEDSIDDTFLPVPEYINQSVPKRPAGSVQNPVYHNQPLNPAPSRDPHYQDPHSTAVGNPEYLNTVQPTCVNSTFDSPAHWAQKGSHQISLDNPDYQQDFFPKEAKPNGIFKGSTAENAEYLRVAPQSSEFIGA
Chain of VEGFR2 (P35968 20-1356): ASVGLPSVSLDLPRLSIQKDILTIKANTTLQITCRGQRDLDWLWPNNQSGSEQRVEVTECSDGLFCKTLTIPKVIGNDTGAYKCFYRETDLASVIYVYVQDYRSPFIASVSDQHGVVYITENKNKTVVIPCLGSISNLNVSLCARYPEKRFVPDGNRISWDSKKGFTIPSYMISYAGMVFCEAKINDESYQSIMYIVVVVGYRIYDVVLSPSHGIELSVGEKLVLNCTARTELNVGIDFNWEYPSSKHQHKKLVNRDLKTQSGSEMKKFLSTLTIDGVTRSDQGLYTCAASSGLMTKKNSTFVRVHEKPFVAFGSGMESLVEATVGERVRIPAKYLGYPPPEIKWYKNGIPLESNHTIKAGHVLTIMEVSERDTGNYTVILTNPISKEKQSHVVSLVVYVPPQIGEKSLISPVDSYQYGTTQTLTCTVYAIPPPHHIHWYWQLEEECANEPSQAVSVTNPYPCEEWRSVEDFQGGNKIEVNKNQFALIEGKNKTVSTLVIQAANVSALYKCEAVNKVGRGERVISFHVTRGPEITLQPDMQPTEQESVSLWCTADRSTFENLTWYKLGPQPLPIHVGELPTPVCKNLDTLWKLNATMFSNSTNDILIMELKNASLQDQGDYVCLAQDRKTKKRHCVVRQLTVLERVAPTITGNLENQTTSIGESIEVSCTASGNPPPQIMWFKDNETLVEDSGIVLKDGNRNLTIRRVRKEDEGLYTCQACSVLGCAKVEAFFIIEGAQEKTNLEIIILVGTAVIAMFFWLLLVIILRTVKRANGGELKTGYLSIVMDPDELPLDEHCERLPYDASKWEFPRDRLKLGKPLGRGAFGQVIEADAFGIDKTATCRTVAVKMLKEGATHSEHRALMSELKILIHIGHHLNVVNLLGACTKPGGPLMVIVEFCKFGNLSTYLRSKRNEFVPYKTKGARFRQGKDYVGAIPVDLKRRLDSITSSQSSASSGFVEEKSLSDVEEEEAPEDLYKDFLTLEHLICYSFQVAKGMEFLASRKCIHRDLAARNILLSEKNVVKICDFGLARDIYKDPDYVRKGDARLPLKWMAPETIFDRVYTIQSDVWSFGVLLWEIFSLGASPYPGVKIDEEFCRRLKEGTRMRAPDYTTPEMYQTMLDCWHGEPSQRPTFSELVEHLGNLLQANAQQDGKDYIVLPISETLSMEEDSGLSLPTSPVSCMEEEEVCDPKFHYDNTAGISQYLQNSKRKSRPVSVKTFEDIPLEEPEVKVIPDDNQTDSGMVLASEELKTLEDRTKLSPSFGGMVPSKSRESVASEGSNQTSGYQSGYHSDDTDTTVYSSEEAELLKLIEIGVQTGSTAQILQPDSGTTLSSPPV
Chain of Her2 (P04626 23-1255): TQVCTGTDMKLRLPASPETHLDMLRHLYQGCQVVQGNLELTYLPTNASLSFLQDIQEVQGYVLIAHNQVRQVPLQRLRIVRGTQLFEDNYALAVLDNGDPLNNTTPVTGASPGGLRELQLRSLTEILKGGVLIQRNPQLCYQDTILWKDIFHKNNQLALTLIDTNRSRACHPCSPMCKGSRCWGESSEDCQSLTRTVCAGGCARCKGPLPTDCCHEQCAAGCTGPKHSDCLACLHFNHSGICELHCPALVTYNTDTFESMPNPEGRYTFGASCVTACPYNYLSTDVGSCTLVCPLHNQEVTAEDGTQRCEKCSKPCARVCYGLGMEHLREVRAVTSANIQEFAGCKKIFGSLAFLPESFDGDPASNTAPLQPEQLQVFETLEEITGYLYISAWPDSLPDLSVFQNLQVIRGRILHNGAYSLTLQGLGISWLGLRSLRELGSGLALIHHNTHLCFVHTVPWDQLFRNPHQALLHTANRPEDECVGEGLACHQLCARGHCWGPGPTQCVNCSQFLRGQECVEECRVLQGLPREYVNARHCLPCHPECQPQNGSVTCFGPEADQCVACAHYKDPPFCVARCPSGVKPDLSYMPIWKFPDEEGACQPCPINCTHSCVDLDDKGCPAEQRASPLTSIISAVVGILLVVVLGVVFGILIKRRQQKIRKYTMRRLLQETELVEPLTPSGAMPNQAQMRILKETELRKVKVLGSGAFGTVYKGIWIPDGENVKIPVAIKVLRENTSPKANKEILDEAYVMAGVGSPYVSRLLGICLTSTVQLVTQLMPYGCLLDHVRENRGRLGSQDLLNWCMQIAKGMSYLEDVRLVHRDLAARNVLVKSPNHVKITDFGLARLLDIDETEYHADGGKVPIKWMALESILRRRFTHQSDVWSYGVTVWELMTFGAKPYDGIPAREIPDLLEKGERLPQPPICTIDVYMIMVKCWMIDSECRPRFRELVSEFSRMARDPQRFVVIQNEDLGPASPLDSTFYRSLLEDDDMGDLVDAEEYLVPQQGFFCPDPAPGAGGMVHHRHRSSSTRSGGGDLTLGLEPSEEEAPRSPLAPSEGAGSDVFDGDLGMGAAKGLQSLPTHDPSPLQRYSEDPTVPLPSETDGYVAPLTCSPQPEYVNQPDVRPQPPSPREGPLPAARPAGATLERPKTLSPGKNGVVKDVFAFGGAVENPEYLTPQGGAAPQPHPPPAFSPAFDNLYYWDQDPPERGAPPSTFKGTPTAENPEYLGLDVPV

SMILES	IC50 [1]	SI (Selectivity Index) HepG2 [1]	IC50 [2]	IC50 [3]	SI (Selectivity Index) MCF-7 [3]	IC50 [4]	IC50 [5]	SI (Selectivity Index) HCT-116 [5]	melting point	IC50 (Her2)	IC50 (AURKC)	IC50 (VEGFR2)	IC50 (CDK2)	IC50 (EGFR)	IC50 (mTOR)	IC50 (HDAC1)
O=C(N/N=C/c1ccc(Cl)cc1)c1ccc(NCc2nc3ccccc3[nH]2)cc1 [6g, (E)-4-(((1H-benzo[d]imidazol-2-yl)methyl)amino)-N′-(4-chlorobenzylidene)benzohydrazide]	24.9 ± 1.7 µM	2.86	71.2 ± 3.5 µM	22.5 ± 1.6 µM	3.16	> 20 µM	35.3 ± 2.3 µM	2.02	290 °C							
O=C(N/N=C/c1ccc(Br)cc1)c1ccc(NCc2nc3ccccc3[nH]2)cc1 [6d, (E)-4-(((1H-benzo[d]imidazol-2-yl)methyl)amino)-N′-(4-bromobenzylidene)benzohydrazide]	17.8 ± 1.3 µM	3.05	54.3 ± 3.1 µM	25.2 ± 1.8 µM	2.16	< 30 µM	30.3 ± 2.1 µM	1.79	287 °C							
O=C(N/N=C/c1ccccc1)c1ccc(NCc2nc3ccccc3[nH]2)cc1 [6a, (E)-4-(((1H-benzo[d]imidazol-2-yl)methyl)amino)-N′-benzylidenebenzohydrazide]	31.8 ± 2.2 µM	2.29	72.6 ± 4 µM	26.3 ± 1.9 µM	2.76	> 20 µM	24.6 ± 1.9 µM	2.95	278 °C							
O=C(N/N=C/c1cccc(Br)c1)c1ccc(NCc2nc3ccccc3[nH]2)cc1 [6c, (E)-4-(((1H-benzo[d]imidazol-2-yl)methyl)amino)-N′-(3-bromobenzylidene)benzohydrazide]	8.9 ± 0.6 µM	5.41	48.2 ± 2.7 µM	7.82 ± 0.6 µM	6.16	7.82 to 10.2 µM	10.2 ± 0.8 µM	4.72	278 °C	0.0556 ± 2.3e-05 µM	0.0944 ± 3.6e-05 µM	0.6045 ± 2.2e-05 µM	0.938 ± 3.9e-05 µM	0.1252 ± 4.1e-05 µM	1.461 ± 5e-05 µM	2.263 ± 7.7e-05 µM
O=C(N/N=C/c1cc(F)ccc1F)c1ccc(NCc2nc3ccccc3[nH]2)cc1 [6l, (E)-4-(((1H-benzo[d]imidazol-2-yl)methyl)amino)-N′-(2,5-difluorobenzylidene)benzohydrazide]	20 ± 1.5 µM	3.88	77.6 ± 4.1 µM	29.8 ± 2 µM	2.60	> 20 µM	39.8 ± 2.2 µM	1.95	160 °C							
CCN(CC)CCNC(=O)c1c(C)[nH]c(/C=C2\C(=O)Nc3ccc(F)cc32)c1C [Sunitinib, reference compound]	8.38 ± 0.5 µM		55.6 ± 3.3 µM	24.1 ± 2 µM			17.9 ± 1.3 µM									
O=C(N/N=C/c1cccc(Cl)c1)c1ccc(NCc2nc3ccccc3[nH]2)cc1 [6f, (E)-4-(((1H-benzo[d]imidazol-2-yl)methyl)amino)-N′-(3-chlorobenzylidene)benzohydrazide]	34.8 ± 2.1 µM		> 100 µM	45.6 ± 2.5 µM		> 20 µM	63.7 ± 3.5 µM		271 °C							
O=C(N/N=C/c1ccccc1F)c1ccc(NCc2nc3ccccc3[nH]2)cc1 [6h, (E)-4-(((1H-benzo[d]imidazol-2-yl)methyl)amino)-N′-(2-fluorobenzylidene)benzohydrazide]	12.9 ± 1 µM	7.19	93 ± 4.6 µM	16.3 ± 1.2 µM	5.70	< 30 µM	21.5 ± 1.6 µM	4.33	289 °C	0.0232 ± 1e-06 µM	0.011 ± 4e-06 µM	0.1945 ± 7e-06 µM	0.284 ± 1.2e-05 µM	0.0732 ± 4e-06 µM	0.413 ± 1.4e-05 µM	0.1511 ± 5e-06 µM
O=C(N/N=C/c1ccccc1Cl)c1ccc(NCc2nc3ccccc3[nH]2)cc1 [6e, (E)-4-(((1H-benzo[d]imidazol-2-yl)methyl)amino)-N′-(2-chlorobenzylidene)benzohydrazide]	28.8 ± 1.7 µM	2.15	61.9 ± 3.5 µM	36.2 ± 2.3 µM	1.71	> 20 µM	46.7 ± 2.7 µM	1.33	289 °C							
O=C(N/N=C/c1ccc(Cl)cc1Cl)c1ccc(NCc2nc3ccccc3[nH]2)cc1 [6k, (E)-4-(((1H-benzo[d]imidazol-2-yl)methyl)amino)-N′-(2,4-dichlorobenzylidene)benzohydrazide]	44.8 ± 2.4 µM		> 100 µM	48.6 ± 2.7 µM		> 20 µM	67.8 ± 3.8 µM		294 °C							
O=C(N/N=C/c1ccccc1Br)c1ccc(NCc2nc3ccccc3[nH]2)cc1 [6b, (E)-4-(((1H-benzo[d]imidazol-2-yl)methyl)amino)-N′-(2-bromobenzylidene)benzohydrazide]	26.2 ± 1.9 µM	3.22	84.2 ± 4.3 µM	31.8 ± 2.1 µM	2.64	> 20 µM	42.9 ± 2.5 µM	1.96	284 °C							
